# Measurements from patent publication US20130324606A1, “Ester Derivatives of Bimatoprost Compositions and Methods” (ALLERGAN, INC., priority 2011, published 2013).
# Key:
# [1] = Partitioning in artificial sebum; format: physicochemical
# Protocol: Compounds bimatoprost, Cmpd IVa, and Cmpd IIIb were added to aqueous solution (1 mL, 2-20 ug/mL), with and without 1-20 mg artificial sebum. Samples were shaken for 16 hr at 37° C. Samples were then centrifuged (8000 RPM) for 15 min at room temperature, prior to collection of the aqueous solution. Samples were analyzed for concentration of compound without artificial sebum (i.e., Co) and with artificial sebum (i.e., Ci) by mass spectroscopy. Artificial sebum and water partition coefficient (Ksebum) was expressed as the concentration of drug in 1 g of artificial sebum divided by the concentration of drug in 1 g of aqueous solution, and was calculated as Ksebum=(Co−Ci)Waqueous/(Ci×Wsebum) (Eqn. 1), where W represents weight.
# Artificial sebum was prepared as follows: 15% (w/w) squalene, 15% spermaceti, 10% coconut oil, 1.5% oleic acid, 5% palmitic acid, 2.4% cholesterol oleate, 10% paraffin wax, 10% olive oil, 25% cottonseed oil, 5% palmitoleic acid, 1.2% cholesterol. The melting point of the semi-liquid was 37° C.
# [2] = Compound distribution in mouse skin by MALDI-MS imaging; format: in vivo; settings: topical dermal, once daily 3 days, 4 hr after day-3 dosing
# Protocol: In order to determine the penetration, accumulation and/or differential distribution of bimatoprost and compounds disclosed herein upon dermal administration, MALDI-MS (matrix assisted laser desorption ionization mass spectroscopy) imaging was conducted on explanted samples of mouse skin after topical dermal administration.
# MALDI-MS imaging was conducted on mouse skin strips after administration of bimatoprost or compound disclosed herein once daily for 3 days. Samples of mouse skin were recovered 4 hr after day-3 dosing of compound. Dermal administration was conducted with vehicle, 0.03% bimatoprost, 3% bimatoprost, 0.03% Cmpd IVa, and 3% Cmpd IVa.
# FIG. 16A depicts a typical explanted sample of mouse skin for these studies, wherein Cmpd IVa was applied via dermal administration. FIG. 16B depicts the result of MALDI-MS imaging. The intensity of each pixel within FIG. 16B reflects the concentration of Cmpd IVa at the corresponding point in the image depicted in FIG. 16A. FIG. 16C depicts a representative mass spectrum, corresponding to the region of FIG. 16B indicated by the white circle within FIG. 16B. Accordingly, each pixel of the image of FIG. 16B has an associated mass spectrum, providing the amounts of bimatoprost or other administered compound or metabolite thereof.
# C57Black/6J mice = test: Piliation (hair regrowth) studies in mice; format: in vivo; settings: 0.03%, topical QD 14 days, vehicle 50% propylene glycol, 30% ethanol, 20% water
# Protocol: C57Black/6J, 7-week old female mice (n=10) were employed in piliation studies. Dorsal hair was shaved (area ˜2 cm×4 cm). Dosing of active agent was once per day (QD) by topical administration for 14 days. Observations were conducted for 42-days to determine onset of new hair growth and day of hair growth completion. Compounds were formulated as either a) 50% propylene glycol, 30% ethanol, 20% water, or b) the formulation of Formulation A described above. The experiments reported for FIGS. 4A-4B, 5A-5B, 6A-6B, 8A-8B, and 9A-9B were conducted using a vehicle with formulation of 50% propylene glycol, 30% ethanol, 20% water. The experiments reported for FIGS. 7A-7B were conducted using a vehicle of Formulation A described above.
# For each of FIGS. 4A, 5A, 6A, 7A, 8A and 9A, the histograms depict the day of onset of hair growth. For each of FIGS. 4B, 5B, 6B, 7B, 8B and 9B, the histograms depict the day achieving full hair growth.
# [3] = In vitro human skin penetration (Franz diffusion chamber); format: in vitro ADME; settings: 0.03% in Formulation A, dosed compound
# Source text: Test material: Dermatomed ex vivo human cadaver posterior trunk skin on 1.0 cm^2 Franz diffusion chamber as known in the art. Test size: 3 skin donors (obtained from New York Firefighters Skin Bank), 3 replicates per donor per formulation. Test formulations: 0.03% active agent (Cmpd IVa, Cmpd IIIb, Cmpd IVb) in Formulation A; control formulation: bimatoprost at 0.03% in Formulation A. Dosing regimen: receptor fluid at 2, 4, 24, and 48 hrs; SC/epidermis and dermis at 48 hrs. Sample analysis: LC/MS-MS to detect bimatoprost and Cmpds IVa, IIIb and IVb.
# mouse skin = test: Pathology assessment of mouse hair regrowth model; format: in vivo, mice; settings: histology, 0.03% active, vehicle control still in growth phase
# Source text: Histological samples from test subjects employed in the studies described in Example 12 were obtained for pathology assessment.
# [4] = Pharmacokinetic assessment of mouse hair regrowth model; format: in vivo; settings: mice, 0.03% dermal daily ~60 uL, all measured time points, LC/MS-MS
# Protocol: Female C57BL/6J mice (n=2) were assayed per time point per treatment group. Treatment groups: (1) vehicle; (2) 0.03% Cmpd IVa; (3) 0.03% Cmpd IIIb; (4) 0.03% Cmpd IVb; (5) 0.03% bimatoprost. Treatment dosing: dermal daily application of ˜60 uL test compound solution. Blood and skin pharmacokinetic time points were obtained at day 1 (1, 4, 8 and 24-hrs post-dose); day 2 (24-hrs post-dose); day 14 (24-hrs post-dose); and day 42 (28 days post day 14 dose). Bioanalysis employed LC/MS-MS.
# [5] = system: human hair dermal papilla cells, HHDPC; test: Cellular dielectric spectroscopy (CDS) in dermal papilla cells; format: cell-based
# Protocol: Cellular dielectric spectroscopy (CDS) was conducted in an assay of dermal papilla cells (i.e., human hair dermal papilla cells, HHDPC) with bimatoprost and Cmpds IVc and IVb. As known in the art, CDS is a real-time, non-invasive, label-free, high-throughput, cell-based assay which measures electrical cell impedance. Without wishing to be bound by any theory, it is believed that GPCR activation induces changes in cell morphology, cell-cell interaction, and cell adherence which manifest as a change in cell impedance.
compound,measurement,setting,value
"CCNC(=O)CCC/C=C\C[C@@H]1[C@@H](/C=C/[C@@H](O)CCc2ccccc2)[C@H](O)C[C@@H]1O [bimatoprost, (Z)-7-((1R,2R,3R,5S)-3,5-dihydroxy-2-((S,E)-3-hydroxy-5-phenylpent-1-enyl)cyclopentyl)-N-ethylhept-5-enamide]",phase in which the majority of compound remains,[1]; artificial sebum / aqueous solution,remain in the aqueous phase
same,Ave. Ksebum (artificial sebum and water partition coefficient),"[1]; n = 4, 16 hr at 37° C.",3.6
same,levels of bimatoprost in skin after 3.0% bimatoprost versus after 3.0% Cmpd IVa,[2],much higher
same,days for hair growth to commence (day of onset of hair growth),C57Black/6J mice; FIG. 6A,22 days
same,days for full hair growth to be achieved,C57Black/6J mice; FIG. 6B,44 days
same,"Percentage Dose Applied, Receptor Chamber Solution, Prodrug",[3]; Franz chamber,1.1 Percentage Dose Applied
same,"Percentage Dose Applied, Upper ⅓ Dermis, Prodrug",[3]; dermis at 48 hrs,7.0 Percentage Dose Applied
same,hair cycle phase at day-42,mouse skin,returned to the resting phase
same,level in the systemic circulation,[4],most undetectable
same,change in cell impedance,[5],characteristic change in cell impedance
same,EC50,"[5]; cell impedance, tested range 10^−4 to 10^−13 mol/L",3.0 to 6.3×10^−7 mol/L
